SMILES	flash point [°C]
CCCCCCBr [1-bromohexane]	47
CCCBr [1-bromopropane]	-4
CC(C)CCl [1-chloro-2-methylpropane]	-17
CCc1ccc(Cl)cc1 [1-chloro-4-ethylbenzene]	62
CCc1cccc(C)c1C [1-ethyl-2,3-dimethylbenzene]	65
CCc1ccc(C)cc1C [1-ethyl-2,4-dimethylbenzene]	57
CCc1cccc(C(C)C)c1 [1-ethyl-3-isopropylbenzene]	63
CCc1ccc(F)cc1 [1-ethyl-4-fluorobenzene]	30
CCN1CCCCC1 [1-ethylpiperidine]	18
Cc1cc(C)cc(F)c1 [1-fluoro-3,5-dimethylbenzene]	35
Cc1cccc(I)c1 [1-iodo-3-methylbenzene]	83
CCCCCCI [1-iodohexane]	61
Cn1cccc1 [1-methylpyrrole]	15
CCCC[N+](=O)[O-] [1-nitrobutane]	47
CCCCCC[N+](=O)[O-] [1-nitrohexane]	72
CCC(=O)Cc1ccccc1 [1-phenyl-2-butanone]	91
CCC(C)Cc1ccccc1 (centres undefined) [1-phenyl-2-methylbutane]	64
CC(=O)OC(C)c1ccccc1 (centres undefined) [1-phenylethylacetate]	91
CCC(=O)OC(C)c1ccccc1 (centres undefined) [1-phenylethylpropionate]	106
CCCS [1-propanethiol]	-14
CC(C)(C)C(C)(C)C [2,2,3,3-tetramethylbutane]	-0
CC(C)C(C)C(C)(C)C (centres undefined) [2,2,3,4-tetramethylpentane]	11
CCC(C)C(C)(C)C (centres undefined) [2,2,3-trimethylpentane]	-3
CC(C)CC(C)(C)C [2,2,4-trimethylpentane]	-7
CC(C)(C)CCC(C)(C)C [2,2,5,5-tetramethylhexane]	16
CC(C)(C)C#N [2,2-dimethylpropanenitrile]	4

SMILES	flash point [°C]
CCC(C)C(C)(C)C(C)C (centres undefined) [2,3,3,4-tetramethylhexane]	31
CC(C)C(C)(C)C(C)C [2,3,3,4-tetramethylpentane]	11
CCC(C)(C)C(C)C [2,3,3-trimethylpentane]	5
CCC(C)(C)C(C)C(C)C (centres undefined) [2,3,4,4-tetramethylhexane]	31
CCC(C)C(C)C(C)C (centres undefined) [2,3,4-trimethylhexane]	15
C=C(C)C(=C)C [2,3-dimethyl-1,3-butadiene]	-22
CC(C)=C(C)C [2,3-dimethyl-2-butene]	-20
CCC(C)C(C)C (centres undefined) [2,3-dimethylpentane]	-15
C=C(C)CC(C)(C)C [2,4,4-trimethyl-1-pentene]	-4
CC(C)=CC(C)(C)C [2,4,4-trimethyl-2-pentene]	-1
CC1CC(C)(C)CC1=O (centres undefined) [2,4,4-trimethylcyclopentanone]	43
CC(C)CC(C)C [2,4-dimethylpentane]	-12
COC1C=CC(OC)O1 (centres undefined) [2,5-dimethoxy-2,5-dihydrofuran]	47
CC(C)CCC(C)C [2,5-dimethylhexane]	-2
C1=CC2C=CC1C2 [2,5-norbornadiene]	-11
CC(C)c1cccc(C(C)C)c1N [2,6-diisopropylaniline]	123
CC(C)(N)CO [2-amino-2-methyl-1-propanol]	68
COC(CBr)OC [2-bromo-1,1-dimethoxyethane]	51
CCCCC(C)Br (centres undefined) [2-bromohexane]	40
CCCC(C)Br (centres undefined) [2-bromopentane]	21
Cc1ccccc1Br [2-bromotoluene]	78
CCC(C)O (centres undefined) [2-butanol]	24
CCC(C)=O [2-butanone]	-7
CC=CC#N [2-butenenitrile]	17
C=CC(=C)Cl [2-chloro-1,3-butadiene]	-20
CC(C)(C)Cl [2-chloro-2-methylpropane]	-23

SMILES	flash point [°C]
Oc1ccccc1Cl [2-chlorophenol]	72
CC(C)Cl [2-chloropropane]	-32
Clc1ccccn1 [2-chloropyridine]	64
Cc1ccccc1Cl [2-chlorotoluene]	47
O=C1CCCC1C1CCCC1 (centres undefined) [2-cyclopentylcyclopentanone]	90
CN(C)CCO [2-dimethylaminoethanol]	41
CCc1cccc(C)c1N [2-ethyl-6-methylaniline]	102
CCC1CCCCC1=O (centres undefined) [2-ethylcyclohexanone]	59
CCc1ccccc1O [2-ethylphenol]	85
Cc1ccccc1F [2-fluorotoluene]	12
CCC(C)I (centres undefined) [2-iodobutane]	24
Cc1ccccc1I [2-iodotoluene]	90
CC(C)c1ccccc1N [2-isopropylaniline]	95
CC(C)C1CCCCC1=O (centres undefined) [2-isopropylcyclohexanone]	65
CC(C)c1ccccc1O [2-isopropylphenol]	89
COC1CCCCC1=O (centres undefined) [2-methoxycyclohexanone]	69
CC1OCCO1 [2-methyl-1,3-dioxolane]	-2
C=C(C)CO [2-methyl-2-propen-1-ol]	33
C=C(C)C=O [2-methyl-2-propenal]	-15
CCC(=O)C(C)C [2-methyl-3-pentanone]	16
COc1ccccc1C [2-methylanisole]	51
CC1CCCCC1=O (centres undefined) [2-methylcyclohexanone]	46
CC1CCCCCCC1=O (centres undefined) [2-methylcyclooctanone]	71
CC1CCCC1=O (centres undefined) [2-methylcyclopentanone]	26
Cc1ccco1 [2-methylfuran]	-26

Now from value to molecule:

flash point [°C]	SMILES
2	CCCCS [1-butanethiol]
41	CCCCCCCCl [1-chloroheptane]
26	CCCCCCCl [1-chlorohexane]
74	CCCCCCCCCCl [1-chlorononane]
85	CCCCCCCCCCN [1-decanamine]
108	CCCCCCCCCCO [1-decanol]
127	CCCCCCCCCCCCO [1-dodecanol]
79	C#CCCCCCCCCCC [1-dodecyne]
46	CCCCCCCS [1-heptanethiol]
70	CCCCCCCO [1-heptanol]
129	C=CCCCCCCCCCCCCCC [1-hexadecene]
30	CCCCCCS [1-hexanethiol]
79	CCCCCCCI [1-iodoheptane]
95	CCCCCCCCI [1-iodooctane]
61	CCCCC[N+](=O)[O-] [1-nitropentane]
79	CCCCCCCCCS [1-nonanethiol]
25	C=CCCCCCCC [1-nonene]
33	C#CCCCCCCC [1-nonyne]
154	C=CCCCCCCCCCCCCCCCC [1-octadecene]
68	CCCCCCCCS [1-octanethiol]
23	CCCO [1-propanol]
109	CCCCCCCCCCCS [1-undecanethiol]
54	C=CCCCCCCCCC [1-undecene]
31	CCCC(C)(C)C(C)(C)C [2,2,3,3-tetramethylhexane]

flash point [°C]	SMILES
15	CCCC(C)C(C)(C)C (centres undefined) [2,2,3-trimethylhexane]
31	CCC(C)(C)CC(C)(C)C [2,2,4,4-tetramethylhexane]
13	CCC(C)CC(C)(C)C (centres undefined) [2,2,4-trimethylhexane]
-3	CCCCC(C)(C)C [2,2-dimethylhexane]
31	CCCCCCC(C)(C)C [2,2-dimethyloctane]
-23	CCCC(C)(C)C [2,2-dimethylpentane]
15	CCCCC(C)C(C)C (centres undefined) [2,3-dimethylheptane]
34	CCC(C)CCCC(C)C (centres undefined) [2,6-dimethyloctane]
68	CCCCC1CCCC1=O (centres undefined) [2-butylcyclopentanone]
1	CCCC(C)Cl (centres undefined) [2-chloropentane]
85	CCCCCCCCC(C)=O [2-decanone]
53	CC#CCCCCCCC [2-decyne]
113	CCCCCCCCCCC(C)O (centres undefined) [2-dodecanol]
42	CCOCCO [2-ethoxyethanol]
57	CCC(CC)CO [2-ethyl-1-butanol]
74	CCCCC(CC)CO (centres undefined) [2-ethyl-1-hexanol]
87	CCC(CC)C(=O)O [2-ethylbutanoicacid]
59	CCCCCC(C)O (centres undefined) [2-heptanol]
10	C=C(C)CCCCC [2-methyl-1-heptene]
-8	C=C(C)CCCC [2-methyl-1-hexene]
51	CCCC(C)CO (centres undefined) [2-methyl-1-pentanol]
-51	CCC(C)C [2-methylbutane]
4	CCCCCC(C)C [2-methylheptane]

From a flash point compilation (Sun et al. 2020)
